According to US12054457B2, “Polymorphs of (2S,5R)-5-(2-chlorophenyl)-1-(2′-methoxy-[1,1′-biphenyl]-4-carbonyl)pyrrolidine-2-carboxylic acid and preparation processes thereof” (EPICS THERAPEUTICS, priority 2022, dated 2024):
Counter-ions that a name gives are not always drawn.

How the values were obtained:
Assay type in all cases: physicochemical
[1] = Hygroscopicity: weight gain on storage at fixed relative humidity
Text: The previously described solid forms of (2S,5R)-5-(2-chlorophenyl)-1-(2′-methoxy-[1,1′-biphenyl]-4-carbonyl)pyrrolidine-2-carboxylic acid, i.e. the amorphous free acid and the corresponding Na salt, both disclosed in WO2021/250174, are hygroscopic.

[2] = Hygroscopicity by dynamic vapor sorption (DVS)
Description: The determination of the hygroscopicity of crystalline forms I and II was also evaluated by dynamic vapor sorption (DVS).
The analyses were performed on a Surface Measurements System DVS Intrinsic. The samples were placed in an open aluminum pan. The analyses were performed at 25° C. Relative humidity (RH) was scanned between 0% RH and 95% RH, with 10% RH steps (40-0-95-0-95). The stability criterion was a variation in mass lower than 0.002% on a 5 min. window, with a minimum step time of 10 min and a maximum of 100 min.

[3] = Thermal gravimetric analysis (TGA); details: temperature range 10° C.-200° C., 10° C./min, nitrogen purge
Description: The thermal gravimetric analysis (TGA) experiments were performed on a Mettler Toledo TGA/DSC3+ apparatus. The samples (about 10-30 mg) were placed in a 100 μL aluminum sample pan and crimped with a punctured cover. […]

[4] = Competitive slurry test between form I and form II in isopropyl alcohol
Description: A competitive slurry test between form I and form II of compound (1) was carried out at 10° C., 20° C., 25° C., 30° C. and 40° C. in isopropyl alcohol.
Method. Suspensions of compound (1) under form II, in isopropyl alcohol, were first prepared and equilibrated for 30 min at each of the temperatures to be studied. About 800 μL of the saturated solutions were then sampled, filtered through a 0.2 μm HPTFE filter, and added into a vial containing 50 mg of form I and 50 mg of form II, equipped with a magnetic rod. After 10 seconds, a first sample of the solid phase is taken and analyzed by XRPD to identify the solid phase(s) present. Additional sampling are also performed until only 1 solid phase remains.

[5] = Cross-seeding tests in water and n-heptane; details: 25° C., form II suspension seeded with form I
Description: Cross-seeding tests were carried out in water and n-heptane.
Method. Saturated solutions of form II were prepared at 25° C. in water and in n-heptane. The suspensions were then seeded with form I after 45 minutes, and kept under stirring at 25° C. The solid phases in suspensions were then periodically controlled by XRPD.

[6] = Thermodynamic stability over time
[7] = Competitive slurry test between form I and form II in n-heptane; details: 10° C., 20° C., 25° C., 30° C. and 40° C.
Description: A competitive slurry test between form I and form II of compound (1) was carried out at 10° C., 20° C., 25° C., 30° C. and 40° C. in n-heptane.
Method. About 1 mL of n-heptane was added into vials containing 40 mg of form I and 40 mg of form II, equipped with a magnetic rod. After 10 seconds, a first sample of the solid phase is taken and analyzed by XRPD to identify the solid phase(s) present. Additional sampling are also performed until only 1 solid phase remains.

COc1ccccc1-c1ccc(C(=O)N2[C@@H](c3ccccc3Cl)CC[C@H]2C(=O)O)cc1 [Na salt, (2S,5R)-5-(2-chlorophenyl)-1-(2′-methoxy-[1,1′-biphenyl]-4-carbonyl)pyrrolidine-2-carboxylic acid]
weight gain ([1]; 40% relative humidity, after 14 h): 7 wt %
weight gain ([1]; 70% relative humidity, 22° C., after 14 h): 20 wt %

COc1ccccc1-c1ccc(C(=O)N2[C@@H](c3ccccc3Cl)CC[C@H]2C(=O)O)cc1 [amorphous free acid, (2S,5R)-5-(2-chlorophenyl)-1-(2′-methoxy-[1,1′-biphenyl]-4-carbonyl)pyrrolidine-2-carboxylic acid]
weight gain ([1]; 40% relative humidity, after 2 days): 3 wt %
weight gain ([1]; 70-75% relative humidity, room temperature, after 14 h): 8 wt %
hygroscopicity (in words) ([1]; previously described solid forms): hygroscopic

COc1ccccc1-c1ccc(C(=O)N2[C@@H](c3ccccc3Cl)CC[C@H]2C(=O)O)cc1 [form I, (2S,5R)-5-(2-chlorophenyl)-1-(2′-methoxy-[1,1′-biphenyl]-4-carbonyl)pyrrolidine-2-carboxylic acid]
weight gain ([1]; 80% relative humidity, 25° C., after 10 days): 0.09 wt %
hygroscopicity (conclusion in words) ([2]; DVS and humidity exposure): non-hygroscopic
weight loss on first desorption stage ([2]; DVS, 25° C., 40% RH to 0% RH): −0.1%
weight gain at the end of the step at 70% RH ([2]; DVS, 25° C., first sorption stage (0% RH to 95% RH)): +0.1%
maximum weight gain at 95% RH ([2]; DVS, 25° C., first sorption stage (0% RH to 95% RH), listed as crystalline form I): +0.7%
weight loss (TGA) ([3]; listed as crystalline form I): −0.14%
relative stability of the forms ([4]; 10° C., 20° C., 25° C., 30° C. and 40° C.): more stable than form II
relative stability of the forms [5]: greater stability of form I vs. form II
time for which the form is thermodynamically stable [6]: at least 6 months

COc1ccccc1-c1ccc(C(=O)N2[C@@H](c3ccccc3Cl)CC[C@H]2C(=O)O)cc1 [form II, (2S,5R)-5-(2-chlorophenyl)-1-(2′-methoxy-[1,1′-biphenyl]-4-carbonyl)pyrrolidine-2-carboxylic acid]
maximum weight gain at 95% RH ([2]; DVS, 25° C., first sorption stage (0% RH to 95% RH), listed as crystalline form II): +0.4%
weight loss (TGA) ([3]; listed as crystalline form II): −0.2%
solid phase present in suspension (XRPD) ([4]; 10-40° C., first sampling after 10 seconds): not visible anymore in the suspensions since the first sampling
solid phase conversion (XRPD) [7]: conversion of form II into form I
